Experimental data reported in patent US20130116336A1, “TREATMENT OF ATAXIA TELANGIECTASIA” (priority 2010, published 2013).

Legend:
[1] = test system: Ataxia-Telangiectasia fibroblast cells AG04405 (AT05); test: Ataxia-Telangiectasia cell line assay: rescue of BSO-stressed A-T fibroblasts, Calcein AM viability; type: cell-based; conditions: A-T fibroblasts AT05 stressed with 1 mM BSO for 48 h, Calcein AM fluorescence, tested three times, read-out: ED50, protection of ataxia telangiectasia cells
Method: Alpha-Tocotrienol quinone, was tested for its ability to rescue Ataxia-Telangiectasia fibroblast cells obtained from the Coriell Cell Repositories (Camden, N.J.; repository number AG04405 (AT05), when the cells were stressed by addition of L-buthionine-(S,R)-sulfoximine (BSO), as described in Jauslin et al., Hum. Mol. Genet. 11(24):3055 (2002), Jauslin et al., FASEB J. 17:1972-4 (2003), and International Patent Application WO 2004/003565.
MEM (a medium enriched in amino acids and vitamins, catalog no. 1-31F24-I) and Medium 199 (M199, catalog no. 1-21F22-I) with Earle's Balanced Salts, without phenol red, were purchased from Bioconcept. Fetal Calf Serum was obtained from PAA Laboratories. Basic fibroblast growth factor and epidermal growth factor were purchased from PeproTech. Penicillin-streptomycin-glutamine mix, L-buthionine (S,R)-sulfoximine, and insulin from bovine pancreas were purchased from Sigma. Calcein AM was purchased from Molecular Probes. […]
100 μL of PBS containing 1.2 μM Calcein AM were then added to each well. […] After that time the PBS was discarded, the plate gently tapped on a paper towel and fluorescence (excitation/emission wavelengths of 485 nm and 525 nm, respectively) was read on a Gemini fluorescence reader. […]

[2] = in vivo; conditions: rat; for NOAEL: female
Method: (§1) The particular dosage appropriate for a specific patient is determined by dose titration. […] There is less than dose-proportionality since for an increase in doses of 2.4:6:10:20 there is only an increase in AUCs of 1.5:2.8:4.0:6.7. This lack of dose-proportionality may be due to decreased absorption since there is no change in t1/2 over dose range. Alpha-tocotrienol quinone tested in rats was safe when given acutely up to 2000 mg/kg.
The starting dose can be estimated based on the United States Food and Drug Administration guidelines titled “Estimating the Maximum Safe Starting Dose in Initial Clinical Trials for Therapeutics in Adult Healthy Volunteers” (July 2005) as well as the International Conference on Harmonisation of Technical Requirements for Registration of Pharmaceuticals for Human Use (ICH) guidelines titled “Guidance on Non-clinical Safety Studies for the Conduct of Human Clinical Trials and Marketing Authorization for Pharmaceuticals” (July 2008). Per ICH guidelines, predicted exposures from the starting dose should not exceed 1/50th the NOAEL (No-Adverse-Observed-Effect-Level) in the more sensitive species on a mg/m^2 basis. Following a single oral dose of alpha-tocotrienol quinone, the NOAEL was established to be 500 mg/kg for the female rat, i.e. 3,000 mg/m2. This dosage would be equivalent to 81 mg/kg in an adult human. 1/50th of 81 mg/kg is 1.6 mg/kg, i.e. 110 mg for a 70 kg adult, or 16 mg for a 10 kg child. This dose can be administered once, twice, or three times daily.

[3] = Animal study of alpha-tocotrienol quinone administration: pharmacokinetics in rats; conditions: rat, in vivo, 10 mg/kg
Method: as §1

[4] = Animal study of alpha-tocotrienol quinone administration: pharmacokinetics in fasted dogs; conditions: dog, in vivo, po, 10 mg/kg
Method: as §1

`CC(C)=CCC/C(C)=C/CC/C(C)=C/CCC(C)(O)CCC1=C(C)C(=O)C(C)=C(C)C1=O` (stereo not drawn) [Alpha-tocotrienol quinone] showed an EC50 [1] of 28 nM, an NOAEL [2] of 81 mg/kg and an NOAEL ([2]; po) of 500 mg/kg. The “dose at which safe when given acutely” value [2] was “up to 2000 mg/kg”, the “NOAEL on body surface basis” value ([2]; po) was 3,000 mg/m2 and the Cmax [3] was 931 ng/mL. For the same compound, the Tmax [3] was 3.5 h, the bioavailability [3] was roughly 90% and the half-life [3] was 3.5 h. It also gave a Cmax [4] of 442 ng/mL, a Tmax [4] of 2.8 h and a bioavailability [4] of roughly 16%. For the same compound, the half-life [4] was 7.6 h.
